IC50 and EC50 data for 13 compounds are collected here from patent US7041698B2, “Hepatitis C virus inhibitors” (Bristol-Myers Squibb Company, priority 2002, dated 2006).

In test [1] the target is T1, HCV NS3/4A protease complex (UniProt P27958, C1454S/C1711G, species not given).
T1 construct: fused on or other part: Three-lysine solubilising tail at the C-terminus of NS4A
The test is described as follows: Recombinant HCV NS3/4A protease complex FRET peptide assay (strain not stated). As to conditions: HCV NS3/4A protease enzyme assay, read-out: IC50 range. Format: biochemical.

Test [2] deals with HCV replicon in Huh7 cells. The test is described as follows: HCV replicon cell-based assay. Also noted: species or system HCV strain 1B. The note with it: Hepatitis C virus, Huh-7, 96 h, HCV replicon, 4 days, read-out: EC50 range. An outline of the steps: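 Huh7 cells carrying a genotype 1b subgenomic replicon (NS3-NS5B, neo) treated 4 days at 37° C with compound (0.5% DMSO final). NS3 protease activity read in lysates with 10 μM FRET peptide (340/490 nm, kinetic), giving EC50. Confirmed by Taqman qRT-PCR of HCV RNA and a Renilla luciferase replicon.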
(In general: A replicon is a self-replicating genome or part of one, used to study replication in cells.)

With `C=CC1C[C@]1(NC(=O)[C@@H]1C[C@@H](OC(=O)Nc2cc(C(=O)OCC)ccc2N2CCCCC2)CN1C(=O)[C@@H](NC(=O)OC(C)(C)C)C(C)(C)C)C(=O)NS(=O)(=O)C1CC1` (stereo partly drawn) [Compound 91, BocNH-P3(t-BuGly)-P2(Hyp(O—CO(NH—(5-carboxyethyl-2-piperidin-1-ylphenyl))))-P1(1R,2S VinylAcca)—CONHSO2Cyclopropane], the IC50 in test [1] is less than 0.1 µM. Moreover, in test [2], the EC50 fell in the range of 0.1 to 1 µM.
Turning to `C=CC1C[C@]1(NC(=O)[C@@H]1C[C@@H](OC(=O)Nc2cc(C(F)(F)F)ccc2N2CCC(C(F)(F)F)CC2)CN1C(=O)[C@@H](NC(=O)OC(C)(C)C)C(C)(C)C)C(=O)NS(=O)(=O)C1CC1` (stereo partly drawn) [Compound 92, BocNH-P3(t-BuGly)-P2(Hyp(O—CO(NH—(5-Trifluoromethyl-2-(4-trifluoromethyl-piperidin-1-yl)-phenyl))))-P1(1R,2S VinylAcca)—CONHSO2Cyclopropane], the 50% inhibitory concentration (IC50) in test [1] was less than 0.1 µM. Besides, in test [2], the EC50 was less than 0.1 µM.
In the case of `C=CC1C[C@]1(NC(=O)[C@@H]1C[C@@H](OC(=O)Nc2ccccc2-n2nccn2)CN1C(=O)[C@@H](NC(=O)OC(C)(C)C)C(C)(C)C)C(=O)NS(=O)(=O)C1CC1` (stereo partly drawn) [Compound 93, BocNH-P3(t-BuGly)-P2(Hyp(O—CO(NH—(2-[1,2,3]Triazol-2-yl-phenyl))))-P1(1R,2S VinylAcca)—CONHSO2Cyclopropane], the IC50 in test [1] was less than 0.1 µM. Also, the concentration giving a half-maximal response (EC50) in test [2] fell in the range of 0.1 to 1 µM.
In the case of `C=CC1C[C@]1(NC(=O)[C@@H]1C[C@@H](OC(=O)Nc2cc(C)ccc2-c2nccs2)CN1C(=O)[C@@H](NC(=O)OC(C)(C)C)C(C)(C)C)C(=O)NS(=O)(=O)C1CC1` (stereo partly drawn) [Compound 94, BocNH-P3(t-BuGly)-P2(Hyp(O—CO(NH—(5-Methyl-2-thiazol-2-yl-phenyl))))-P1(1R,2S VinylAcca)—CONHSO2Cyclopropane], the half-inhibitory concentration (IC50) in test [1] was less than 0.1 µM. Also, in test [2], the EC50 is less than 0.1 µM.
Take `C=CC1C[C@]1(NC(=O)[C@@H]1C[C@@H](OC(=O)Nc2cc(OC)ccc2-n2cccn2)CN1C(=O)[C@@H](NC(=O)OC(C)(C)C)C(C)(C)C)C(=O)NS(=O)(=O)C1CC1` (stereo partly drawn) [Compound 95, BocNH-P3(t-BuGly)-P2(Hyp(O—CO(NH—(5-Methoxy-2-pyrazol-1-yl-phenyl))))-P1(1R,2S VinylAcca)—CONHSO2Cyclopropane]: the IC50 in test [1] was less than 0.1 µM. The EC50 in test [2] is 0.1 to 1 µM.
For `C=CC1C[C@]1(NC(=O)[C@@H]1C[C@@H](OC(=O)Nc2cc(C)ccc2-n2cccn2)CN1C(=O)[C@@H](NC(=O)OC(C)(C)C)C(C)(C)C)C(=O)NS(=O)(=O)C1CC1` (stereo partly drawn) [Compound 96, BocNH-P3(t-BuGly)-P2(Hyp(O—CO(NH—(5-Methyl-2-pyrazol-1-yl-phenyl))))-P1(1R,2S VinylAcca)—CONHSO2Cyclopropane] the same measures were less than 0.1 µM and less than 0.1 µM.
The matching figures for `C=CC1C[C@]1(NC(=O)[C@@H]1C[C@@H](OC(=O)Nc2cc(C)ccc2-n2nccn2)CN1C(=O)[C@@H](NC(=O)OC(C)(C)C)C(C)(C)C)C(=O)NS(=O)(=O)C1CC1` (stereo partly drawn) [Compound 97, BocNH-P3(t-BuGly)-P2(Hyp(O—CO(NH—(5-Methyl-2-[1,2,3]triazol-2-yl-phenyl))))-P1(1R,2S VinylAcca)—CONHSO2Cyclopropane]: less than 0.1 µM and less than 0.1 µM.
For the compound `C=CC1C[C@]1(NC(=O)[C@@H]1C[C@@H](OC(=O)Nc2cc(C#N)ccc2-n2cccn2)CN1C(=O)[C@@H](NC(=O)OC(C)(C)C)C(C)(C)C)C(=O)NS(=O)(=O)C1CC1` (stereo partly drawn) [Compound 98, BocNH-P3(t-BuGly)-P2(Hyp(O—CO(NH—(5-Cyano-2-pyrazol-1-yl-phenyl))))-P1(1R,2S VinylAcca)—CONHSO2Cyclopropane], the IC50 in test [1] was less than 0.1 µM. The EC50 in test [2] was less than 0.1 µM.
As to `C=CC1C[C@]1(NC(=O)[C@@H]1C[C@@H](OC(=O)Nc2cc(F)ccc2-n2cccn2)CN1C(=O)[C@@H](NC(=O)OC(C)(C)C)C(C)(C)C)C(=O)NS(=O)(=O)C1CC1` (stereo partly drawn) [Compound 99, BocNH-P3(t-BuGly)-P2(Hyp(O—CO(NH—(5-Fluoro-2-pyrazol-1-yl-phenyl))))-P1(1R,2S VinylAcca)—CONHSO2Cyclopropane], in test [1], the IC50 is less than 0.1 µM. Moreover, the EC50 in test [2] is less than 0.1 µM.
Consider `C=C[C@@H]1C[C@]1(NC(=O)[C@@H]1C[C@@H](OC(=O)Nc2cc(C(F)(F)F)ccc2-n2cccn2)CN1C(=O)[C@@H](NC(=O)OC(C)(C)C)C(C)(C)C)C(=O)NS(=O)(=O)C1CC1` [Compound 100, BocNH-P3(t-BuGly)-P2(Hyp(O—CO(NH—(5-trifluoromethyl-2-pyrazol-1-yl-phenyl))))-P1(1R,2S VinylAcca)—CONHSO2Cyclopropane], for which, in test [1], the half-maximal inhibitory concentration (IC50) is less than 0.1 µM. Also, the EC50 in test [2] was less than 0.1 µM.
Consider `C=C[C@@H]1C[C@]1(NC(=O)[C@@H]1C[C@@H](OC(=O)N2CCc3ccccc3C2)CN1C(=O)[C@@H](NCC1CC1)C(C)(C)C)C(=O)NS(=O)(=O)C1CC1` [Compound 101], for which, in test [1], the IC50 was less than 0.1 µM. For the same compound, the 50% effective concentration (EC50) in test [2] was in the range of 1 to 10 µM.
For the compound `C=C[C@@H]1C[C@]1(NC(=O)[C@@H]1C[C@@H](OC(=O)Nc2ccccc2C(=O)OCC)CN1C(=O)[C@@H](NC(=O)OC)C(C)(C)C)C(=O)NS(=O)(=O)C1CC1` [Compound 110], the IC50 in test [1] was less than 0.1 µM. The EC50 in test [2] was in the range of 0.1 to 1 µM.
The matching figures for `C=C[C@@H]1C[C@]1(NC(=O)[C@@H]1C[C@@H](OC(=O)Nc2ccccc2C(=O)OCC)CN1C(=O)[C@@H](NC(=O)OCC)C(C)(C)C)C(=O)NS(=O)(=O)C1CC1` [Compound 111]: less than 0.1 µM and 0.1 to 1 µM.

In general, IC50 refers to the concentration that gives 50% inhibition. A word on the EC50: it is the concentration at which the effect is half-maximal.
